One experiment deals with T1, Human CaV2.2 channels (Homo sapiens, UniProt Q00975).
T1 construct: expressed in transfected cells
T1 sequence (Q00975 whole entry): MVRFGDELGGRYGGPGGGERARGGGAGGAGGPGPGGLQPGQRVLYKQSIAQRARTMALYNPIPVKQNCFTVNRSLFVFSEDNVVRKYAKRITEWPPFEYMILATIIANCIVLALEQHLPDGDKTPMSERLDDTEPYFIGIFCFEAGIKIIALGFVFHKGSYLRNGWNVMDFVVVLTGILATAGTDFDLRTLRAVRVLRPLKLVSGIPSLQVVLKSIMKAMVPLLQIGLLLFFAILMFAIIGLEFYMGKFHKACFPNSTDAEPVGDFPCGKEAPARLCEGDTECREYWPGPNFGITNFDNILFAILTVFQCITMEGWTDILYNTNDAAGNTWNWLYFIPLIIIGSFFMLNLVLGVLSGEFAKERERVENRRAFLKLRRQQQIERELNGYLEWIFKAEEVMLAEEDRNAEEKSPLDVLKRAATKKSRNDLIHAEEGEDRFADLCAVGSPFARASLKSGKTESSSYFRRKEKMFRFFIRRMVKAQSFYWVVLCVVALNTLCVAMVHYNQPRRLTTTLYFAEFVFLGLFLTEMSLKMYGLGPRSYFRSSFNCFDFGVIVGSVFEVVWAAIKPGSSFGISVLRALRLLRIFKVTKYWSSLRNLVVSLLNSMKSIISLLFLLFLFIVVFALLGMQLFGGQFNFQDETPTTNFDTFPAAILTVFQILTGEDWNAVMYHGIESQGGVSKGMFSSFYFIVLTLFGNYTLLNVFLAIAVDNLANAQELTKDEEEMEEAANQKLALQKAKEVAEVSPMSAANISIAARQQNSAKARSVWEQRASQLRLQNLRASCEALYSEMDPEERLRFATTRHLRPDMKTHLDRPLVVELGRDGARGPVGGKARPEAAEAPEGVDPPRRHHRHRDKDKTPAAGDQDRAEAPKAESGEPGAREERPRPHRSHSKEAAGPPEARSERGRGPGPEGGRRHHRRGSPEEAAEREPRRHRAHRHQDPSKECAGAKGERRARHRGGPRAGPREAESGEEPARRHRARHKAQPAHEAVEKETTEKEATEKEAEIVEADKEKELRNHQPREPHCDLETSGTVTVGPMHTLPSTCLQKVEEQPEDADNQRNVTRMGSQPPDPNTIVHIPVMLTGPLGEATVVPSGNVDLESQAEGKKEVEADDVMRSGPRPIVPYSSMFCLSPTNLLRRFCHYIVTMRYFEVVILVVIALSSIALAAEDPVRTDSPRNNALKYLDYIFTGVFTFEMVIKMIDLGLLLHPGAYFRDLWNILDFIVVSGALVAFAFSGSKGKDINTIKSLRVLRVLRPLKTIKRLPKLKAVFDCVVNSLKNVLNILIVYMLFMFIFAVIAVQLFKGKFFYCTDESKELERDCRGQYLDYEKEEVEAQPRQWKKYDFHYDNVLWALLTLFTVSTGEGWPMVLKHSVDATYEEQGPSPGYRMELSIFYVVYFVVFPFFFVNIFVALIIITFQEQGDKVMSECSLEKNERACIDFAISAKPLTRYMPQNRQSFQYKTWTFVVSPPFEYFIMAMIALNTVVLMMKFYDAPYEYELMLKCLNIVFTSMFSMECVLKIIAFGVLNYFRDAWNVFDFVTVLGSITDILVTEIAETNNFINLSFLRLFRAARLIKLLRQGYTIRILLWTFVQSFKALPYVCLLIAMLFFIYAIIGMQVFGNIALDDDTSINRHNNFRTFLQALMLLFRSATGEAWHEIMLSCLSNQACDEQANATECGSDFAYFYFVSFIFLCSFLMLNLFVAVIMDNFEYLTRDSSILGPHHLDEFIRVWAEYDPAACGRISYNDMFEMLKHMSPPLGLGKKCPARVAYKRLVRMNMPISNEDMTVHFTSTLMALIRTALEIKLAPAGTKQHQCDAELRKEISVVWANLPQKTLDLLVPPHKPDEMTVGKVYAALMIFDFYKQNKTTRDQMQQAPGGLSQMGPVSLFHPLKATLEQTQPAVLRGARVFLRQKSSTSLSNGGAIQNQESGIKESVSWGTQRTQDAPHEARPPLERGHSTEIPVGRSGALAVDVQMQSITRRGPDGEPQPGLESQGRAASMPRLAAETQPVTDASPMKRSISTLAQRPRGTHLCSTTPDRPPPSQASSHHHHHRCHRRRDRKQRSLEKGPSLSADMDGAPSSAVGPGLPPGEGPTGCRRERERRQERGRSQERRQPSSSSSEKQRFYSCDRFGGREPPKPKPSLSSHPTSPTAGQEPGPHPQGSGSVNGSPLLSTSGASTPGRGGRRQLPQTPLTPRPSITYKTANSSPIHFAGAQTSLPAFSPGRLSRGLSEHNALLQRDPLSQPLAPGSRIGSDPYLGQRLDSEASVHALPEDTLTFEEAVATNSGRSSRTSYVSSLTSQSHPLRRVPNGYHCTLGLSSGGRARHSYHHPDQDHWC
In words: Fluorescence assay for CaV2.2 channels using potassium depolarization to induce channel opening (FLIPR, Fluo 4). The class given is cell-based. Conditions: 3 μM test compound; 30 mM KCl (alternative assay buffer, inactivated channel state); HEK293 cells. The text has this: In the process, the Ca^2+ influx is quantified in the FLIPR assay with the aid of a Ca^2+-sensitive dye (type Fluo-4, Molecular Probes Europe BV, Leiden, the Netherlands) in a fluorescent imaging plate reader (FLIPR 3, Molecular Devices, Sunnyvale, USA), as described hereinafter.
2.1 Fluorescence Assay for CaV2.2 Channels Using Potassium Depolarization to Induce Channel Opening
Human CaV2.2 channels were stably expressed in HEK293 cells together with alpha2-delta and beta subunits of voltage gated calcium channels. In addition, an inwardly rectifying potassium channel (Kir2.3) was stably expressed in these cells to augment control of the cell membrane potential by the concentration of extracellular potassium ions. Raise of the extracellular potassium concentration leads to depolarization of the membrane potential and thus regulates the voltage dependent state of CaV2.2 channels. For preparation, cells were seeded in black poly-D-lysine coated 96-well plates (Becton Dickinson, Biocoat 4640) in 100 μL medium [500 mL DMEM/F-12 plus Glutamax (Invitrogen 31331-093) plus 5.5 mL MEM NEAA 100× (Invitrogen 11140-035) plus 50 mL FBS decomplemented (Invitrogen 10270-106) plus 200 μg/mL Geneticin (Invitrogen 10131-027) plus 50 μg/mL Hygromycin B (Invitrogen 10687-010) plus 2 μg/mL Blasticidin (anti-b15b Invivo-Gen) plus 0.2 μg/mL Puromycin (A 11138-03)] at a cell density of 30.000 cells per well. Plates were incubated at 37° C. (5% CO2) for 20 to 23 h. On the day of experiment medium was discarded and cells were loaded with Fluo 4 by addition of 100 μL of basic assay buffer (10 mM HEPES, 1 mM KCl, 149 mM NaCl, 0.8 mM CaCl2, 1.7 mM MgCl2, 10 mM Glucose, 0.1% BSA. pH 7.4) containing 2 μM Fluo 4 (Molecular Probes; F-14201), 0.01% pluronic acid (Molecular Probes; P-6866) and 2.5 mM probenecid (Molecular Probes; P36400). Cells were incubated in the dark at 25° C. for 60 min. Then dye containing buffer was discarded and […] basic (1 mM KCl) or alternative (30 mM KCl) assay buffer was added. The alternative assay buffer contained altered concentrations of KCl (30 mM) and NaCl (120 mM) and was used in order to promote the inactivated channel state. After that 25 μL of basic or alternative assay buffer with or without test compound were added and cells were incubated again in the dark at 25° C. for 15 min. Fluorescence intensity was measured on a FLIPR 3 instrument (Molecular Devices Corp., Sunnyvale, Calif.) with excitation at 480 nm and emission at 535 nm. After continuously reading fluorescence for 30 sec, 50 μL of basic assay buffer containing 210 mM KCl (NaCl omitted) were added for depolarization. Peak fluorescent signal intensity was determined and the amplitude of the peak signal, normalized to base line, was used to measure channel inhibition by test compounds.
For the compound `CC1(S(=O)(=O)c2cccc(C(F)(F)F)c2)CCOC(c2cc(C(F)(F)F)nn2CCO)C1` (stereo not drawn) [Example 2 cis-EN2, 2-[5-[4-Methyl-4-[[3-(trifluoromethyl)phenyl]sulfonyl]-tetrahydro-pyran-2-yl]-3-(trifluoromethyl)-1H-pyrazol-1-yl]-ethanol], the “Activity Category: %-Inhib (CaV2.2) @3 μM @30 mM KCl” value (from here on “Activity Category: %-Inhib”) was “A (“A”: %-Inhibition >95%)”.

As to `COCn1nc(C(F)F)cc1C1CC(C)(S(=O)(=O)c2cccc(C(F)(F)F)c2)CCO1` (stereo not drawn) [Example 5 cis-EN2, 3-(Difluoromethyl)-1-(methoxymethyl)-5-(4-methyl-4-((3-(trifluoromethyl)phenyl)sulfonyl)tetrahydro-2H-pyran-2-yl)-1H-pyrazole], the “Activity Category: %-Inhib” value was “A (“A”: %-Inhibition >95%)”.

Consider `CC(C)(CO)n1nc(C(F)(F)F)cc1C1CC(C)(S(=O)(=O)c2cccc(C(F)(F)F)c2)CCO1` (stereo not drawn) [Example 6 cis-EN2, 2-Methyl-2-[5-[4-methyl-4-[[3-(trifluoromethyl)phenyl]sulfonyl]-tetrahydro-pyran-2-yl]-3-(trifluoromethyl)-1H-pyrazol-1-yl]-propan-1-ol], for which the “Activity Category: %-Inhib” value is “A (“A”: %-Inhibition >95%)”.

Turning to `CC1(S(=O)(=O)c2cccc(C(F)(F)F)c2)CCOC(c2cc(C(F)(F)F)nn2CCS(C)(=O)=O)C1` (stereo not drawn) [Example 19 cis-EN1, 1-(2-Methylsulfonyl-ethyl)-5-[4-methyl-4-[[3-(trifluoromethyl)phenyl]sulfonyl]-tetrahydro-pyran-2-yl]-3-(trifluoromethyl)-1H-pyrazole], the “Activity Category: %-Inhib” value is on record as “B (“B”: %-Inhibition >75% up to ≤95%)”.

The same experiment, now with this note: HEK293, 3 μM test compound; 30 mM KCl (alternative assay buffer, inactivated channel state); HEK293 cells; read-out: Activity Category: %-Inhib (CaV2.2) @3 μM @30 mM KCl.
As to `CC1(S(=O)(=O)c2cccc(C(F)(F)F)c2)CCOC(c2cc(C(F)(F)F)nn2CCO)C1` (racemic) [Example 2 trans-rac, 2-[5-[4-Methyl-4-[[3-(trifluoromethyl)phenyl]sulfonyl]-tetrahydro-pyran-2-yl]-3-(trifluoromethyl)-1H-pyrazol-1-yl]-ethanol], the inhibition at 3 µM fell in the range of 40 to 75%.

For `COCCCn1nc(C(F)(F)F)cc1C1CC(C)(S(=O)(=O)c2cccc(C(F)(F)F)c2)CCO1` (racemic) [Example 10 cis-rac, 1-(3-Methoxypropyl)-5-(4-methyl-4-((3-(trifluoromethyl)phenyl)sulfonyl)tetrahydro-2H-pyran-2-yl)-3-(trifluoromethyl)-1H-pyrazole], the inhibition at 3 µM is greater than 95%.

`CC1(S(=O)(=O)c2cccc(C(F)(F)F)c2)CCOC(c2cc(C(F)(F)F)nn2CC2(N)CC2)C1` (racemic) [Example 15 cis-rac, [1-[[5-[4-Methyl-4-[[3-(trifluoromethyl)phenyl]sulfonyl]-tetrahydro-pyran-2-yl]-3-(trifluoromethyl)-1H-pyrazol-1-yl]-methyl]-cyclopropyl]-amine]: the inhibition at 3 µM was greater than 95%.

Consider `CC1(S(=O)(=O)c2cccc(C(F)(F)F)c2)CCOC(c2cc(C(F)(F)F)nn2CS(C)(=O)=O)C1` (racemic) [Example 18 cis-rac, 1-(Methylsulfonyl-methyl)-5-[4-methyl-4-[[3-(trifluoromethyl)phenyl]sulfonyl]-tetrahydro-pyran-2-yl]-3-(trifluoromethyl)-1H-pyrazole], for which the inhibition at 3 µM is greater than 95%.

In the case of `COCCn1nc(S(C)(=O)=O)cc1C1CC(C)(S(=O)(=O)c2cccc(C(F)(F)F)c2)CCO1` (racemic) [Example 23 cis-rac, 1-(2-Methoxyethyl)-5-(4-methyl-4-((3-(trifluoromethyl)phenyl)sulfonyl)tetrahydro-2H-pyran-2-yl)-3-(methylsulfonyl)-1H-pyrazole], the inhibition at 3 µM lay in the range of 75 to 95%.

Turning to `CC(CO)Cn1nc(C(F)(F)F)cc1C1CC(C)(S(=O)(=O)c2cccc(C(F)(F)F)c2)CCO1` (racemic) [Example 24 cis-rac, 2-Methyl-3-[5-[4-methyl-4-[[3-(trifluoromethyl)phenyl]sulfonyl]-tetrahydro-pyran-2-yl]-3-(trifluoromethyl)-1H-pyrazol-1-yl]-propan-1-ol], the inhibition at 3 µM is greater than 95%.

Turning to `CC1(S(=O)(=O)c2cccc(C(F)(F)F)c2)CCOC(c2cc(C(F)(F)F)nn2CCO)C1` (stereo not drawn) [Example 2 cis-EN1, 2-[5-[4-Methyl-4-[[3-(trifluoromethyl)phenyl]sulfonyl]-tetrahydro-pyran-2-yl]-3-(trifluoromethyl)-1H-pyrazol-1-yl]-ethanol], the inhibition at 3 µM lay in the range of 75 to 95%.

On to `CC1(S(=O)(=O)c2cccc(C(F)(F)F)c2)CCOC(c2cc(S(C)(=O)=O)nn2CCO)C1` (stereo not drawn) [Example 4 cis-EN1, 2-[3-Methylsulfonyl-5-[4-methyl-4-[[3-(trifluoromethyl)phenyl]sulfonyl]-tetrahydro-pyran-2-yl]-1H-pyrazol-1-yl]-ethanol], for which the inhibition at 3 µM lay in the range of 40 to 75%.

As for `COCn1nc(C(F)F)cc1C1CC(C)(S(=O)(=O)c2cccc(C(F)(F)F)c2)CCO1` (stereo not drawn) [Example 5 cis-EN1, 3-(Difluoromethyl)-1-(methoxymethyl)-5-(4-methyl-4-((3-(trifluoromethyl)phenyl)sulfonyl)tetrahydro-2H-pyran-2-yl)-1H-pyrazole], the inhibition at 3 µM was 75 to 95%.

Consider `CC(C)(CO)n1nc(C(F)(F)F)cc1C1CC(C)(S(=O)(=O)c2cccc(C(F)(F)F)c2)CCO1` (stereo not drawn) [Example 6 cis-EN1, 2-Methyl-2-[5-[4-methyl-4-[[3-(trifluoromethyl)phenyl]sulfonyl]-tetrahydro-pyran-2-yl]-3-(trifluoromethyl)-1H-pyrazol-1-yl]-propan-1-ol], for which the inhibition at 3 µM fell in the range of 75 to 95%.

On to `CC1(S(=O)(=O)c2cccc(C(F)(F)F)c2)CCOC(c2cc(C(F)(F)F)nn2CCCO)C1` (stereo not drawn) [Example 9 cis-EN1, 3-[5-[4-Methyl-4-[[3-(trifluoromethyl)phenyl]sulfonyl]-tetrahydro-pyran-2-yl]-3-(trifluoromethyl)-1H-pyrazol-1-yl]-propan-1-ol], for which the inhibition at 3 µM lay in the range of 75 to 95%.

For `CC1(S(=O)(=O)c2cccc(C(F)(F)F)c2)CCOC(c2cc(C(F)(F)F)nn2CC(N)=O)C1` (stereo not drawn) [Example 11 cis-EN1, 2-[5-[4-Methyl-4-[[3-(trifluoromethyl)phenyl]sulfonyl]-tetrahydro-pyran-2-yl]-3-(trifluoromethyl)-1H-pyrazol-1-yl]-acetamide], the inhibition at 3 µM fell in the range of 75 to 95%.

As for `CC1(S(=O)(=O)c2cccc(C(F)(F)F)c2)CCOC(c2cc(C(F)(F)F)nn2C2COC2)C1` (stereo not drawn) [Example 17 cis-EN1, 5-[4-Methyl-4-[[3-(trifluoromethyl)phenyl]sulfonyl]-tetrahydro-pyran-2-yl]-1-(oxetan-3-yl)-3-(trifluoromethyl)-1H-pyrazole], the inhibition at 3 µM lay within 75 to 95%.

Regarding `CC1(S(=O)(=O)c2cccc(C(F)(F)F)c2)CCOC(c2cc(C(F)(F)F)nn2CCS(C)(=O)=O)C1` (stereo not drawn) [Example 19 cis-EN2, 1-(2-Methylsulfonyl-ethyl)-5-[4-methyl-4-[[3-(trifluoromethyl)phenyl]sulfonyl]-tetrahydro-pyran-2-yl]-3-(trifluoromethyl)-1H-pyrazole], the inhibition at 3 µM is greater than 95%.

Consider `CC1(S(=O)(=O)c2cccc(C(F)(F)F)c2)CCOC(c2cc(C(F)(F)F)nn2C2CS(=O)(=O)C2)C1` (stereo not drawn) [Example 20 cis-EN1, 3-[5-[4-Methyl-4-[[3-(trifluoromethyl)phenyl]sulfonyl]-tetrahydro-pyran-2-yl]-3-(trifluoromethyl)-1H-pyrazol-1-yl]-thietane-1,1-dioxide], for which the inhibition at 3 µM lay within 75 to 95%.

For the compound `COCn1nc(C(F)(F)F)cc1C1CC(C)(S(=O)(=O)c2cccc(C(F)(F)F)c2)CCO1` (stereo not drawn) [Example 21 cis-EN1, 1-(Methoxymethyl)-5-[4-methyl-4-[[3-(trifluoromethyl)phenyl]sulfonyl]-tetrahydro-pyran-2-yl]-3-(trifluoromethyl)-1H-pyrazole], the inhibition at 3 µM is greater than 95%.

Turning to `CC1(S(=O)(=O)c2cccc(C(F)(F)F)c2)CCOC(c2cc(S(=O)(=O)C(F)F)nn2CCO)C1` (stereo not drawn) [Example 25 cis-EN1, 2-[3-(Difluoro-methylsulfonyl)-5-[4-methyl-4-[[3-(trifluoromethyl)phenyl]sulfonyl]-tetrahydro-pyran-2-yl]-1H-pyrazol-1-yl]-ethanol], the inhibition at 3 µM lay within 75 to 95%.

For the origin of these results see patent publication US10100041B2, “Pyrazolyl substituted tetrahydropyranylsulfones” (GRÜNENTHAL GMBH, priority 2015, dated 2018).
